Measurements from paper PMC9564503, “Anabaenopeptins from Nostoc edaphicum CCNP1411” (International Journal of Environmental Research and Public …, 2022).
Numbered stars: 1 amine (or outer) side, 2 acyl side, 3 side chain; on linkers, the order of the positions; unused ones are H or OH. Bridge positions count the residues as written; N and C are the ends. Square brackets hold non-standard residues; d marks the D form. Peptide text beside a SMILES is read from it. hPhe = N[C@@H](CCc1ccccc1)C(=O)O; NMeN = CN[C@@H](CC(N)=O)C(=O)O; CO = O=C([*:1])[*:2]

Columns and labels:
[1] = test system: trypsin; assay: Trypsin inhibition assay; format: biochemical; settings: class symbol in IC50 column
Description: The tests were performed in triplicates.
Table S2. Conditions and solvents used in the enzyme inhibition assays.
Enzyme Substrate Inhibitor bation time (min) ngth
Carboxypeptidase-A N-(4-methoxy-phenyl- Carboxypeptidase
(Sigma-Aldrich; azoformyl)-Phe-OH inhibitor from 5 min;
1.6 µM Montclair, CA, USA) (Sigma-Aldrich)
Elastase N-succinyl-Ala-Ala-Ala-p- Elastatinal
(Sigma-Aldrich) nitroanilide (Sigma-Aldrich) 20 min;
Thrombin N-p-tosyl-Gly-Pro-Lys-p- AEBSF
(Sigma-Aldrich) nitroanilide acetate salt (Sigma-Aldrich) 10 min;
Trypsin N-α-benzoyl-DL-arginine- Aprotinine
(Sigma-Aldrich) p-nitroanilide (Sigma-Aldrich) 15 min;
Figure S2. MRM chromatograms of anabaenopeptins produced by N. edaphicum CCNP1411.

[2] = test system: CPA; design: method as in PMID 11000037, PMID 10340607, PMID 27641470; settings: ref [9],[23],[87]; read-out: IC50 against CPA; cited from earlier work

Row | Compound | Enzyme Inhibition TRY (activity class) [1] | IC50 [2] [nM]
1 | CC[C@H](C)[C@@H]1NC(=O)[C@H](NC(=O)N[C@H](C(=O)O)C(C)C)CCCCNC(=O)[C@H](Cc2ccccc2)NC(=O)[C@H](CC(N)=O)NC(=O)[C@H](CCc2ccccc2)NC1=O [AP806Ne, [Lys–Leu*–Hph–Asn–Phe]CO–Val] ({Val-CO}-[dK]I[hPhe]NF; lactam 1-C) | – (not active (inhibition below 10%)) | 
2 | CC[C@H](C)[C@H](NC(=O)N[C@@H]1CCCCNC(=O)[C@H](Cc2ccccc2)NC(=O)[C@H](CC(N)=O)N(C)C(=O)[C@H](CCc2ccccc2)NC(=O)[C@H]([C@@H](C)CC)NC1=O)C(=O)O [AP SA6, [Lys–Leu*–Hph–MeAsn–Phe]CO–Leu*] ({Ile-CO}-[dK]I[hPhe][NMeN]F; lactam 1-C) | – (not active (inhibition below 10%)) | 
3 | Tyr+CO[Lys+Ile+Hty+MeHty+Ile] [AP G] |  | 2
